This is an account of results in patent US5789383A, “Bradykinin antagonists for the prophylaxis or treatment of virus diseases” (Hoechst Aktiengesellschaft, priority 1993, dated 1998).

The structures appear in SMILES notation.

This assay relates to HSV-1. As to the kind of experiment: HOE 140 in combination with acyclovir on HSV-1 skin lesions in hairless mice, Experiment 24/94. The assay is classed as in vivo. The following applies: acyclovir 0.05% orally day 3-7, no HOE 140. The protocol:
Investigation of the Action of HOE 140 on Skin Lesions Caused by HSV-1 in Hairless Mice in Combination with Acyclovir
HOE 140 was administered twice daily either topically as a 2% strength cream in a neutral base or subcutaneously with 2 mg/kg per dosage. Acyclovir was administered as a 0.05% strength solution in the drinking water.
Administration of acyclovir day 3-7
Administration of HOE 140 day 3-7 or 0-7

Take `Nc1nc2c(ncn2COCCO)c(=O)[nH]1` [Acyclovir, acyclovir]: the “Average survival time” value turned out to be 7.3 ± 1.2 days. The Survivors/group size (chi^2 test not significant) is listed as 2/8. Where the note is “group size 8”, the “Animals with zoster formation” value is given as 7.
